Results published in article PMC7738508, “A therapeutic combination of two small molecule toxin inhibitors provides broad preclinical efficacy against viper snakebite” (Nature Communications, 2020).
Where “and” joins values, the source holds several entries; their conditions need not be identical. Identical values can stand only once. Like-named read-outs stand apart in the source and are kept apart here.

Columns and labels:
[1] = test system: procoagulant activity of viper venoms (citrated bovine plasma); assay: plasma clotting assay, viper venoms overall; assay type: biochemical; conditions: range across all venoms; lower end of dimercaprol and marimastat ranges given as < 0.15; read-out: IC50, inhibition of procoagulant venom activity
Method: (§1) We used a previously developed plasma clotting assay[35] to measure venom-induced coagulation. Briefly, 100 ng of each venom was incubated at 37 °C for 30 min in the presence or absence of inhibitors (150 µM to 150 nM final concentrations). The final reaction consisted of 10 µl venom ± inhibitors in PBS, 20 µl 20 mM CaCl2, and 20 µl citrated bovine plasma (VWR). The samples were pipetted in triplicate into 384-well plates, and absorbance monitored at 595 nm for 2 h at 25 °C on an Omega FLUOstar instrument. We calculated the maximum clotting velocity of each of the curves as per clot waveform analysis, by calculating the maximum of the first derivative. The means of at least three independent experimental runs for each condition were plotted at each inhibitor concentration with SEMs.

[2] = test system: procoagulant activity of Echis carinatus venom (citrated bovine plasma); assay: plasma clotting assay; assay type: biochemical; design: key: max of first derivative of A595 clot curve (max clotting velocity); conditions: Echis carinatus venom 100 ng, independent repeats
Method: as §1

[3] = test system: coagulopathic activity of Daboia russelii venom (citrated bovine plasma); assay: plasma clotting assay; assay type: biochemical; design: key to maximum clotting velocity: max of first derivative of A595 clot curve (max clotting velocity); conditions: for maximum clotting velocity: Daboia russelii venom 100 ng, independent repeats
Method: as §1

[4] = test system: SVMP bioactivity of the four active venoms (E. ocellatus, E. carinatus, B. asper, B. arietans); assay: in vitro kinetic fluorogenic SVMP assay, viper venoms overall; assay type: biochemical
Method: (§2) The SVMP assay measuring metalloproteinase activity and the plasma assay measuring coagulation in the presence or absence of venoms and inhibitors were performed as previously described. The SVMP assay kinetically measured cleavage of a quenched fluorogenic substrate (ES010, R&D Biosystems) by venom in the presence or absence of inhibitors.
(§3) Briefly, 10 µl of the substrate (supplied as a 6.2 mM stock) was used per 5 ml reaction buffer (150 mM NaCl, 50 mM Tris-Cl pH 7.5). Reactions consisted of 10 µl of venom ± inhibitors in PBS and 90 µl of substrate. Venoms were used at 1 µg/reaction and final inhibitor concentrations ranged from 150 µM to 150 nM. Samples were preincubated for 30 min at 37 °C and pipetted in triplicate into 384-well plates (Greiner). Thereafter, data was collected on an Omega FLUOstar (BMG Labtech) instrument at an excitation wavelength of 320 nm and emission wavelength of 405 nm at 25 °C for 1 h. The areas under the curve (AUCs) in the 0–40 min interval were calculated for each sample using MARS data analysis software v3.31 (BMG Labtech); this time point was chosen as the time where all fluorescence curves had reached a plateau (maximum fluorescence). For comparing venom-only samples, the means of at least three independent experimental runs for each condition, expressed as AUCs (n ≥ 3), were plotted at each inhibitor concentration with standard error of the mean (SEM). To determine inhibitor efficacy, the AUCs for each of the samples that consisted of venom + inhibitors were transformed and expressed as percentages of the venom-only sample (where the venom was 100%). The negative control (PBS-only) was also expressed relative to the venom, and the variation in background was presented as an interval delineated by the lowest and highest values in the PBS-only samples across concentrations and inhibitors for a specific venom.

water solubility = assay type: physicochemical
[5] = test system: Bothrops asper venom SVMP activity; assay: fluorogenic SVMP assay; assay type: biochemical; conditions: independent repeats
Method: as §2, §3

[6] = test system: Echis carinatus venom SVMP activity; assay: fluorogenic SVMP assay; assay type: biochemical; conditions: independent repeats
Method: as §2, §3

[7] = test system: Echis ocellatus venom SVMP activity; assay: fluorogenic SVMP assay; assay type: biochemical; conditions: independent repeats
Method: as §2, §3

[8] = test system: Bitis arietans venom SVMP activity; assay: fluorogenic SVMP assay; assay type: biochemical; conditions: independent repeats
Method: as §2, §3

[9] = test system: procoagulant activity of Echis ocellatus venom (citrated bovine plasma); assay: plasma clotting assay; assay type: biochemical; conditions: Echis ocellatus venom 100 ng, independent repeats
Method: as §1

[10] = test system: procoagulant activity of Bothrops asper venom (citrated bovine plasma); assay: plasma clotting assay; assay type: biochemical; conditions: Bothrops asper venom 100 ng, independent repeats
Method: as §1

E. ocellatus venom = assay: in vivo preincubation model of envenoming (i.v.); design: species or system CD-1 mice
Method: All animal experiments were conducted using protocols approved by the Animal Welfare and Ethical Review Boards of the Liverpool School of Tropical Medicine and the University of Liverpool, and performed in specific pathogen-free conditions under licensed approval (PPL #4003718 and #P5846F90) of the UK Home Office and in accordance with the Animal [Scientific Procedures] Act 1986 and institutional guidance on animal care. All experimental animals (18–20 g [4–5 weeks old], male, CD-1 mice, Charles River, UK) were housed in groups of five with environmental enrichment, water and food ad libitum and their health monitored daily during acclimatization. The experimental design was based upon 3R-refined WHO-recommended protocols[28],[41], with animals randomized and observers being blinded to the experimental condition. The median lethal doses (venom LD50) used for E. ocellatus (Nigeria), E. carinatus (India), B. asper (Costa Rica), D. russelii (Sri Lanka) and B. arietans (Nigeria) venoms were previously determined[25],[41],[44],[45].
All experimental doses were prepared to a volume of 200 µl in PBS and incubated at 37 °C for 30 min prior to their intravenous injection via the tail vein. Animals were monitored for 6 h, and euthanized via rising concentrations of CO2 upon observation of previously defined humane end points that are predicators of lethality (e.g., seizure, pulmonary distress, paralysis, hemorrhage)[28]. Deaths, time of death, and survivors were recorded; where death/time of death actually represents the implementation of euthanasia based on defined humane end points.
For all experimental animals described above, blood samples were collected via cardiac puncture immediately post-euthanasia. Plasma was separated by centrifugation at 400 × g for 10 min and stored at −80 °C. We assessed the levels of thrombin-antithrombin complexes (TAT) and soluble thrombomodulin using mouse ELISA Kits (ab137994 and ab209880, Abcam), following the manufacturer’s protocol. All available plasma samples (some were unobtainable via cardiac puncture due to extensive internal hemorrhage) were assessed if the time of death within the group varied, whereas three samples were randomly chosen if the time of death was the same (e.g., either very rapid death within 2 min, or survival until the end of the experiment [360 min or 24 h]). The resulting data was plotted as the median of duplicate measurements for each animal and is presented with standard deviations (SDs).

[11] = cited from earlier work
[12] = test system: pro- and anticoagulant fractions of D. russelii venom; assay: nanofractionation with plasma coagulation assay; assay type: biochemical, Daboia russelii; conditions: nanofractionated D. russelii venom; inhibitor 0.0064 to 20 µM
Method: Fifty microlitres of venom solution (D. russelii; 1 mg/ml) was injected into a Shimadzu LC-2010 system with nanofractionation in parallel. Separation was performed on a Waters XBridge reversed-phase C18 column (250 × 4.6 mm^2 column with 3.5 μm pore-size) at 30 °C. The total flow rate of the mobile phase solution was 0.5 ml/min with eluent A (98% H2O, 2% acetonitrile [ACN], 0.1% formic acid [FA]) and eluent B (98% ACN, 2% H2O, 0.1% FA). Liquid chromatography gradients consisted of a linear increase of mobile phase B from 0 to 50% in 20 min, followed by a linear increase to 90% B in 4 min, then isocratic at 90% B for 5 min, after which the percentage of mobile phase B was decreased from 90 to 0% in 1 min, followed by 10 min at 0% B to re-equilibrate. The effluent was split in a 1:9 ratio of which the 10% fraction was sent to a Shimadzu SPD-M20A prominence diode array detector and the 90% fraction was directed to a nanofractionation collector which dispensed the fractions into transparent 384-well plates (F-bottom, rounded square well, polystyrene, without lid, clear, non-sterile; Greiner Bio One, Alphen aan den Rijn, The Netherlands) at a resolution of 6 s/well. The collector used was either a commercially available FractioMate^TM nanofractionator (SPARK-Holland & VU, Netherlands, Emmen & Amsterdam) controlled by FractioMator software v1.0 (Spark-Holland, The Netherlands, Emmen) or a modified Gilson 235P autosampler controlled by in-house written software Ariadne v1.8 (VU Amsterdam). The well plates with venom fractions were then dried overnight in a Christ Rotational Vacuum Concentrator (RVC 2 − 33 CD plus, Zalm en Kipp, Breukelen, The Netherlands) equipped with a cooling trap, and maintained at −80 °C during operation. The freeze-dried plates were then stored at −80 °C prior to bioassaying.
The final assay concentrations of the inhibitors tested in the assay were 20, 4, 0.8, 0.16, 0.032, and 0.0064 µM. The plates were then incubated for 30 min at room temperature, and during this time bovine plasma (Sterile Filtered, Biowest, Nuaille, France) was defrosted in a water bath and centrifuged for 4 min at 805 × g prior to use. […] The plate was then read immediately for absorbance kinetically for 100 min at 595 nm at 25 °C using a Varioskan Flash Multimode Reader (Thermo Fisher Scientific, Ermelo, The Netherlands). The obtained results were normalized by dividing the slope measured in each well by the median of all slope values across the plate, and the processed coagulation chromatograms were plotted to visualize very fast coagulation, medium increased coagulation and anticoagulation, as previously described.

SMILES: CNC(=O)[C@H](Cc1ccccc1)NC(=O)[C@H](CC(C)C)[C@H](CSc1cccs1)C(=O)NO [batimastat]
- IC50 [1]: < 150 nM
- maximum clotting velocity ([2]; inhibitor 15 µM): 0.03565 and 0.03449
- maximum clotting velocity ([2]; inhibitor 150 µM): 0.0287 and 0.02696 and 0.02803
- effect on clotting after complete neutralization of SVMP activity ([3]; D. russelii venom, high doses): revealed clear venom anticoagulant effects
- maximum clotting velocity ([3]; inhibitor 15 µM): 0.01373 and 0.01942 and 0.02131
- neutralization of SVMP bioactivity ([4]; four active venoms, marimastat 150 nM to 150 µM, batimastat […] and 150 nM): equivalent efficacy to marimastat
- water solubility (words) (water solubility): water insolubility
- water solubility (words) (water solubility; listed as Batimastat): low water solubility

SMILES: OCC(S)CS (stereo not drawn) [dimercaprol, 2,3-dimercapto-1-propanol]
- IC50 [1]: 150 to 3700 nM
- SVMP activity, percentage of the venom-only sample ([5]; inhibitor 15 µM): 36.4776% and 36.4971% and 29.4073%
- SVMP activity, percentage of the venom-only sample ([5]; inhibitor 150 µM): 26.9201% and 36.0411% and 27.8434%
- SVMP activity, percentage of the venom-only sample ([6]; inhibitor 15 µM): 11.4563% and 14.5818% and 10.6976%
- SVMP activity, percentage of the venom-only sample ([6]; inhibitor 150 µM): 11.223% and 13.9151% and 10.3819%
- SVMP activity, percentage of the venom-only sample ([7]; inhibitor 15 µM): 17.6103% and 18.1155% and 16.6523%
- SVMP activity, percentage of the venom-only sample ([7]; inhibitor 150 µM): 15.563% and 16.8718% and 16.6432%
- SVMP activity, percentage of the venom-only sample ([8]; inhibitor 15 µM): 16.3406% and 15.4164% and 15.5101%
- SVMP activity, percentage of the venom-only sample ([8]; inhibitor 150 µM): 15.3818% and 14.876% and 14.901%
- maximum clotting velocity ([2]; inhibitor 15 µM): 0.039 and 0.037 and 0.04491
- maximum clotting velocity ([2]; inhibitor 150 µM): 0.03967 and 0.03833 and 0.05167
- maximum clotting velocity ([3]; inhibitor 15 µM): 0.02868 and 0.02941 and 0.02393
- maximum clotting velocity ([3]; inhibitor 150 µM): 0.007941 and 0.0123
- maximum clotting velocity ([9]; inhibitor 15 µM): 0.031 and 0.039 and 0.025
- maximum clotting velocity ([9]; inhibitor 150 µM): 0.038 and 0.0465 and 0.041
- maximum clotting velocity ([10]; inhibitor 15 µM): 0.02441 and 0.02559 and 0.02164
- maximum clotting velocity ([10]; inhibitor 150 µM): 0.02412 and 0.03441 and 0.03148
- lowest concentration generally effective / required to fully inhibit SVMP activities ([4]; across the active venoms): 1.5 µM
- IC50 ([4]; range across the active venoms, read-out: IC50s, inhibition of venom SVMP activity): 20 to 400 nM

SMILES: CCc1c(C(=O)C(N)=O)c2c(OCC(=O)O)cccc2n1Cc1ccccc1 [varespladib]
- protection against venom-induced lethality (E. ocellatus venom; 45 µg E. ocellatus venom preincubated with 60 µg of each drug, i.v., 6 h): failed to prevent lethality over the full experimental time course
- thrombin-antithrombin (TAT) levels, range in group (E. ocellatus venom; plasma after euthanasia, E. ocellatus venom + 60 µg of each drug, venom-only mean 1127.3, normal mice 10.2–15.9): 472.7 to 649.9 ng/mL
- tolerability ([11]; Phase 1 and 2): well tolerated
- risk of major adverse cardiovascular events ([11]; Phase 2B, same daily dose, >300 patients for >6 months): no greater risk of major adverse cardiovascular events
- risk of myocardial infarction vs placebo ([11]; Phase 3, acute coronary syndrome patients, 500 mg oral daily): greater risk of myocardial infarction than those receiving placebo
- oral bioavailability [11]: good oral bioavailability
- half-life ([11]; delivered by iv infusion): 5 h
- maximum clotting velocity ([3]; inhibitor 15 µM): 0.09594 and 0.09681 and 0.08696
- maximum clotting velocity ([3]; inhibitor 150 µM): 0.1113 and 0.1116 and 0.1203
- inhibition of anticoagulant venom fractions [12]: effectively inhibited
- inhibition of procoagulant venom fractions [12]: some inhibitory effect against procoagulant venom toxins, but only at very high doses (20 µM)
- water solubility (words) (water solubility): water insolubility
